Source: patent US20160017326A1, “MICRORNAS AS FUNCTIONAL MEDIATORS AND BIOMARKERS OF BONE METASTASIS” (THE TRUSTEES OF PRINCETON UNIVERSITY, priority 2013, published 2016)

Experiments:
[1] = Serum miRNA levels after injection of pre-miRNAs, qRT-PCR; assay type: in vivo, mice; conditions: qPCR of mouse serum
Method: RNA from cell lines was isolated using a miRVana miRNA isolation kit (AMBION®). Total RNA from mouse bleeds was isolated using Trizol LS (Invitrogen) according to manufacturers instructions. For microarrays, 5 μg total RNA was labeled using the NCode Rapid Labeling System (Invitrogen) and hybridized to custom arrays. The arrays were analyzed using the G2565BA scanner (Agilent Technologies), and median fluorescent intensities were obtained after subtracting background. To identify differential miRNA expression between samples, the median fluorescent intensities were normalized using the median expression values within the array and log 2 values analyzed.
mRNA was analyzed by synthesizing cDNA using the Superscript III First-strand kit (Invitrogen) and qPCR performed using the Power SYBR® green PCR master mix (Applied Biosystems). Mature miRNAs were reverse transcribed using the TaqMan Reverse Transcription Kit (Applied Biosystems) followed by real-time PCR using TaqMan miRNA assays (Applied Biosystems). All analysis was performed using an ABI 7900HT PCR machine according to the manufacturer's instructions. A standard curve was created from serial dilutions from cDNA for each gene of interest. Values were normalized by the expression of GAPDH or RNU6B in each sample.
FIG. 8C illustrates qRT-PCR miRNA expression levels from serum samples of mice taken at indicated times after injection with miRNAs. The results were statistically significant with p<0.01 (**). […] In contrast, miR-141 and miR-219 took substantially longer to clear from the serum, maintaining ˜20% of the normalized expression at 24 hours.

[2] = system: RAW264.7 cells; assay: In vitro bone resorption assay on bovine bone slices; assay type: cell-based, murine; conditions: miRNA transfection, 50 ng/ml RANKL, relative to control cells
Method: 5×10^4 pre-osteoclast cells were seeded onto 1 mm thick slices of bovine bone cut using a diamond saw and sterilized by immersion in 70% ethanol. Cells were cultured for 10 days as indicated in 6-well plates, transferred to fresh plates and washed to remove osteoclasts. Bone slices were stained in a solution of 1% toludine blue in 0.5% sodium tetraborate, destained in PBS plus 1% Triton X-100, and imaged by light microscopy.
In vitro bone resorption assay was then used to measure the effect of ectopic miRNA expression on osteoclast activity. […] Referring to this figures, scale bar represents 200 μm. Results were statistically significant with p<0.01 (**) and p<0.001 (***). […] Since these miRNAs may inhibit osteoclast differentiation or function by targeting different mRNAs, the repression of osteoclast differentiation was further examined using combinations of inhibitory miRNAs. Given that transient transfection with 10 pM of miRNA precursors was sufficient to inhibit up to approximately 90% of osteoclast differentiation, RAW264.7 cells were treated with a combination of miRNAs at a reduced concentration of 1 pM total precursors.

[3] = system: SCP28 breast cancer cells; assay: Experimental bone metastasis: intracardiac SCP28 cells in nude mice, BLI, X-ray, histology; assay type: in vivo, mouse; conditions: for osteolytic bone lesions (X-ray): hindlimbs, pre-miRNA treated; for TRAP+ osteoclast number: histology, tumor-bone interface; for hind-limb tumor burden / metastatic progression by BLI: pre-miRNA 10 μg/mouse i.v. before and once per week after SCP28 inoculation; for osteolytic bone metastasis: summary statement
Text: Hindlimb bones were excised from mice at the end point of each experiment, immediately following X-ray and BLI. Hind limb bones were fixed in 10% neutral-buffered formalin, washed and decalcified in a solution of 10% EDTA for 2 weeks. One limb from each mouse was stored in 70% ethanol for μCT analysis and Von Kossa staining, while the other limb was embedded in paraffin for hematoxylin and eosin (H&E), tartrate-resistant acid phosphatase (TRAP), or immunohistochemical staining. Non-decalcified sections were embedded in resin using the Osteo-bed Bone Embedding Kit (Sigma Aldrich, EM0200) before sectioning, followed by Von Kossa staining. Briefly, sections were rehydrated to H2O, followed by submersion in 1% silver nitrate and exposure to UV light for 5 minutes. Sections were then incubated in 2.5% Sodium Thiosulphate, followed by counterstaining with Nuclear Fast Red and dehydration through Xylene. Histomorphometric analysis was performed on H&E stained bone metastasis sections using the Zeiss Axiovert 200 microscope and the AxioVision software version 4.6.3 SP1. For quantitative analysis of lesion area, a 5× objective was used to focus on the tumor region of interest and images were acquired using an AxioCamICc3 camera set to an exposure of 50 ms. Lesions that were larger than the field of view were quantified by acquiring multiple images to encompass the entire lesion and combined in Adobe Photoshop CS5. Lesion area was quantified by outlining the region(s) of interest and quantifying lesion area. Osteoclast number was assessed as multinucleated TRAP^+ cells along the tumor-bone interface and reported as number/mm of interface as previously reported (Sethi et al., 2011). Immunohistochemical analysis was performed with heat-induced antigen retrieval and an osteocalcin antibody (ABcam, AB93876). A biotinylated secondary antibody was used with Vectastain ABC Kit (Vector Laboratories) and DAB detection kit (Zymed) to reveal the positively stained cells; nuclei were counterstained with hematoxylin
Anesthetized mice were placed on singlewrapped films (X-OMAT AR, Eastman Kodak) and exposed to X-ray radiography at 35 kV for 15 s using a MX-20 Faxitron instrument. Films were developed using a Konica SRX-101A processor. Changes in bone remodeling and osteolytic lesions (radiolucent lesions) in the hindlimbs of mice were identified and quantified using the ImageJ software (National Institutes of Health)
All procedures involving mice and experimental protocols were approved by Institutional Animal Care and Use Committee (IACUC) of Princeton University. For bone metastasis studies, 1×10^5 tumor cells were injected into the left cardiac ventricle of anesthetized female athymic Ncr-nu/nu. MiRNA precursors (10 μg/mouse in 100 μl PBS, Applied Biosystems) and Zometa (100 μg/kg) were injected intravenously. Development of metastases was monitored by measuring photon flux of BLI signals in the hindlimbs of mice after retro-orbital injection of 75 mg/kg D-Luciferin and image acquisition using the Xenogen IVIS 200 Imaging System. Data were normalized to the signal on day 0. X-ray examination was performed as previously described (Kang et al., 2003).
After further validating the ability of highly metastatic SCP28 to induce osteoclastogenesis in MOCP5 cells, SCP28 were used for analyzing the effect of miRNAs on bone metastasis development in mice. FIG. 7E illustrates representative images of MOCP-5 cells treated with MDA-MB-231 and SCP28 CMs. Scale bar represents 200 μm. FIGS. 7F and 7G illustrate quantification of osteoclast number and nuclei per osteoclast after MOCP-5 cells were treated with indicated CM as in FIG. 7C. Results were statistically significant with p<0.001 (***) as assessed by Student's t test. Nude mice were systemically treated with control or experimental pre-miRNAs immediately before, and once per week subsequently, after inoculation with SCP28 cells via intracardiac injection. […]

miR-219: miRNA, SEQ ID NO: 66; delivered as pre-miRNA precursor; targets Mitf and Traf6 (UGAUUGUCCAAACGCAAUUCU; delivered as pre-miRNA precursor, chemistry not given here; listed as Homo sapiens)
normalized serum expression remaining at 24 hours [1]: ~20%
bone resorption (osteoclast activity) [2]: dramatically limited osteoclast activity
osteolytic bone lesions (X-ray) [3]: decreased bone lesions
TRAP+ osteoclast number [3]: significant decrease
hind-limb tumor burden / metastatic progression by BLI [3]: significant decrease in metastatic burden
osteolytic bone metastasis [3]: capable of inhibiting

miR-133a: miRNA, SEQ ID NO: 61; delivered as pre-miRNA precursor; targets Mitf and Mmp14 (UUUGGUCCCCUUCAACCAGCUA; delivered as pre-miRNA precursor, chemistry not given here; listed as Homo sapiens)
serum miRNA level within 6 hours of injection [1]: substantial decrease
clearance from serum within 24 hours [1]: nearly full clearance
bone resorption (osteoclast activity) [2]: dramatically limited osteoclast activity
osteolytic bone lesions (X-ray) [3]: significant bone degradation
hind-limb tumor burden / metastatic progression by BLI [3]: no effect
osteolytic bone metastasis [3]: no measurable effect

miR-141: miRNA, SEQ ID NO: 69; delivered as pre-miRNA precursor; targets Mitf and Calcr (UAACACUGUCUGGUAACGAUGU; delivered as pre-miRNA precursor, chemistry not given here; listed as Homo sapiens)
normalized serum expression remaining at 24 hours [1]: ~20%
bone resorption (osteoclast activity) [2]: dramatically limited osteoclast activity
osteolytic bone lesions (X-ray) [3]: decreased bone lesions
TRAP+ osteoclast number [3]: significant decrease
hind-limb tumor burden / metastatic progression by BLI [3]: significant decrease in metastatic burden
osteolytic bone metastasis [3]: capable of inhibiting

miR-190: miRNA, SEQ ID NO: 64; delivered as pre-miRNA precursor; targets Calcr (UGAUAUGUUUGAUAUAUUAGGU; delivered as pre-miRNA precursor, chemistry not given here; listed as Homo sapiens)
serum miRNA level within 6 hours of injection [1]: substantial decrease
clearance from serum within 24 hours [1]: nearly full clearance
bone resorption (osteoclast activity) [2]: dramatically limited osteoclast activity
osteolytic bone lesions (X-ray) [3]: significant bone degradation
TRAP+ osteoclast number [3]: significant decrease
hind-limb tumor burden / metastatic progression by BLI [3]: no effect
osteolytic bone metastasis [3]: no measurable effect
